Each structure is given as a SMILES string.

The values below come from the Deep4Chem optical property database.

A short description of the series: solvent given as SMILES.
The mark [1] stands for this setting: in O=P(c1ccccc1)(c1ccccc1)c1ccccc1Oc1ccccc1P(=O)(c1ccccc1)c1ccccc1.

In turn, `c1ccc(N(c2ccccc2)c2ccc(-c3ccc4c(c3)C3(c5cc(-c6ccc(N(c7ccccc7)c7ccccc7)cc6)ccc5O4)c4ccccc4-c4ccccc43)cc2)cc1` came in with a fluorescence lifetime (in ClCCl) of 1.2 ns.
As for `C(#Cc1ccccc1)C(C#Cc1ccccc1)=Cc1ccc2cc(C=C(C#Cc3ccccc3)C#Cc3ccccc3)ccc2c1`, the fluorescence lifetime (in ClC(Cl)Cl) was determined as 1.1 ns.
In the case of `CC1=[N+]2C(=C(c3ccccc3)c3ccc(C)n3[B-]2(F)F)C=C1`, the fluorescence lifetime runs as follows: (in C1CCCCC1) 1.94 ns; (in CC#N) 1.33 ns; (in CCOC(C)=O) 1.71 ns; (in CO) 1.46 ns; (in Cc1ccccc1) 2.65 ns; (in ClC(Cl)Cl) 2.65 ns.
Molecule `CC1(C)CC(/C=C/c2ccc(-n3cccn3)cc2)=CC(=C(C#N)C#N)C1` gave a fluorescence lifetime (in CCO) of 0.05 ns.
In the case of `O=C(c1ccc(-n2c3ccccc3c3cc(-n4c5ccccc5c5ccccc54)ccc32)cc1)c1ccc(-n2c3ccccc3c3cc(-n4c5ccccc5c5ccccc54)ccc32)cn1`, the fluorescence lifetime under setting [1] turned out to be 62 ns.
For the molecule `C=CCOc1ccc(-c2nc3cc(C(NC(=O)OC(C)(C)C)C(=O)OC)ccc3o2)cc1` (stereo unspecified), the fluorescence lifetime runs as follows: (in CC1CCCCC1) 1.05 ns; (in CC#N) 1.14 ns; (in CO) 1.21 ns.
Consider `CCCCC#Cc1cccc2cc(CCCC)c3cc(-c4cc[b-]5c(c4)c(CCCC)cc4cccc(C#CCCCC)[n+]54)cc[b-]3[n+]12`, for which the fluorescence lifetime (in C1CCCCC1) amounted to 4 ns.
For `CCCCCCC(CCCCCC)N1C(=O)c2cccc3c(-c4cc(OC)c(OC)c(OC)c4)ccc(c23)C1=O`, the fluorescence lifetime runs as follows: (in CCCCCC) 2.03 ns; (in CCCCCCCCCCCCCC) 2.78 ns; (in CCCCCCCCCCCO) 1.75 ns; (in CCCCO) 0.208 ns; (in CN(C)C=O) 0.119 ns; (in Cc1ccccc1) 5.4 ns. The molecule also returned a fluorescence lifetime (in ClC(Cl)Cl) of 6.62 ns.
`COC(=O)c1nc(Br)c(-c2ccccc2)o1` had a fluorescence lifetime (in C1CCCCC1) of 0.49 ns.
Under “in ClCCl”, `CCCCNc1nc(/C=C/c2ccccc2)[n+]([O-])c2c1CCCC2` yielded a fluorescence lifetime of 8.9 ns.
Regarding `FC(F)(F)c1cc2n(n1)[B-]1(c3ccccc3Oc3ccccc31)[n+]1ccc3ccccc3c1-2`, the fluorescence lifetime was determined as 1.79 ns (in C1CCCCC1), 1.85 ns (in Cc1ccccc1) and 2.45 ns (in ClCCl).
Consider `CCN(CC)c1ccc(/N=N/c2nc3ccc([N+](=O)[O-])cc3s2)cc1`, for which the fluorescence lifetime by setting is: (in CC#N) 6.03 ns; (in ClCCl) 8.14 ns.
As for `COC(=O)[C@@]12N=N[C@@H](C3C[C@H]31)[C@@H]1C[C@@H]12` (stereo partly specified), the fluorescence lifetime (in CC#N) was found to be 9.2 ns.
Regarding `CCOC(=O)CCCCCn1c2ccc(C)cc2c(=O)c2cc3c(cc21)c(=O)c1cc(C)ccc1n3CCCCCC(=O)OCC`, the fluorescence lifetime (in CO) turned out to be 22 ns.
Regarding `CC[N+](CC)=c1ccc2c(-c3ccccc3C(=O)O)c3cc4c(-c5ccccc5C(=O)O)c5ccc(=[N+](CC)CC)cc-5oc4cc3oc-2c1`, the fluorescence lifetime (in ClC(Cl)Cl) came to 0.72 ns.
The same measure, in the same setting: the figure for `CCCCCCN1C(=O)c2cccc3cc(/N=C\c4cn(C)c5ccccc45)cc(c23)C1=O` is 11.4 ns.
`c1ccc(-c2nc(-c3ccc(-c4cccs4)s3)[nH]c2-c2ccccc2)cc1` displayed a fluorescence lifetime (in CC#N) of 0.86 ns.
`O=C(c1ccc(N2c3ccccc3[Si](c3ccccc3)(c3ccccc3)c3ccccc32)cc1)c1ccc(N2c3ccccc3[Si](c3ccccc3)(c3ccccc3)c3ccccc32)cc1`: for the setting “in c1cc(-n2c3ccccc3c3ccccc32)cc(-n2c3ccccc3c3ccccc32)c1”, the fluorescence lifetime came to 134 ns.
In the case of `COc1cnc(-c2cc[n+](C3=C(F)C(F)(F)C(F)(F)[C-]3F)cc2)s1`, the fluorescence lifetime turned out to be 2.3 ns (in CC#N); 2.3 ns (in CC(C)=O); 1.04 ns (in CCO); 0.41 ns (in CN(C)C=O); 0.54 ns (in CO); 0.22 ns (in CS(C)=O). Also, the fluorescence lifetime was determined as 2.85 ns (in ClC(Cl)Cl) and 2.81 ns (in ClCCl).
The molecule `c1ccc2c(c1)Sc1ccc(-n3c4ccccc4c4ccccc43)cc1S2` had a fluorescence lifetime (in CC1CCCCC1) of 9.4 ns, a fluorescence lifetime under setting [1] of 3.5 ns and a fluorescence lifetime (in c1cc(-c2cccc(-n3c4ccccc4c4ccccc43)c2)cc(-n2c3ccccc3c3ccccc32)c1) of 5.1 ns.
Molecule `COc1ccc2c(c1)c(=O)c1ccccc1n2CCCCCC(=O)O` showed a fluorescence lifetime (in O) of 17 ns.
